The target in the test is T1, HisRS (Histidyl-tRNA synthetase) (Escherichia coli, UniProt P60906).
T1 sequence (P60906 2-424): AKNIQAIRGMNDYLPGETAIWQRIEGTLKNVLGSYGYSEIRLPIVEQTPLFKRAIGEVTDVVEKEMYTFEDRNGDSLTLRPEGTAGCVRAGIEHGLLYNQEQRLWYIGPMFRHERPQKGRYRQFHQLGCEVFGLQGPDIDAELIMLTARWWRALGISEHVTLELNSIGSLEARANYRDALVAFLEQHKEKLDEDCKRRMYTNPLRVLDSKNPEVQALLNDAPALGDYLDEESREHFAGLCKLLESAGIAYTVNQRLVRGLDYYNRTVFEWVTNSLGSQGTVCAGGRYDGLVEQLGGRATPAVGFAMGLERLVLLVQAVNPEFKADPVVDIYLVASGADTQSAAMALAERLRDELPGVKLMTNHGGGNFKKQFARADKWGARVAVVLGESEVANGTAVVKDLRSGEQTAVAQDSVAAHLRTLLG
Description: differential scanning fluorimetry. The settings on record: 10 mM ATP; apo Tm 53.4 ± 1.1 °C; 10 uM enzyme, 20 mM HEPES pH 7.5, 150 mM KCl. Format: binding. (In general: In DSF a fluorescence change marks the thermal transition of the protein.)

Results on one compound are retold here after publication PMC5493479 (Methods (San Diego, Calif.), 2016).

Take `Nc1ncnc2c1ncn2[C@@H]1O[C@H](COP(=O)(O)OP(=O)(O)OP(=O)(O)O)[C@@H](O)[C@H]1O` [ATP]: the “ATP 10 mM Tm (°C)” value was 55.8 ± 0.5 °C.
